Experimental data published in publication PMC3663906 (Journal of medicinal chemistry, 2013).

What was measured:
T. brucei [1] = conditions: cited from earlier work
HepG2 cells = assay: HepG2 cell toxicity assay; type: cell-based; conditions: Homo sapiens, HepG2, read-out: HepG2 IC50, MTT cytotoxicity, Tables 5 and 6
T. brucei brucei CA427 = assay: Mouse model of HAT
T. brucei [2] = assay: Trypanosome cell cycle analysis
[3] = tested on: endocytosis of transferrin in T. brucei; assay: Receptor-mediated endocytosis of transferrin in the trypanosome
[4] = Mouse oral pharmacokinetic study; type: in vivo
[5] = tested on: endocytosis of transferrin in T. brucei; conditions: cited from earlier work

C=CC(=O)Nc1cc2c(Nc3ccc(F)c(Cl)c3)ncnc2cc1OCCCN1CCOCC1 [canertinib]
EC50 for killing T. brucei (T. brucei [1]): low micromolar range

O=S(=O)(c1ccc(-c2ccc3ncnc(Nc4ccc(OCc5cccc(F)c5)c(Cl)c4)c3c2)cc1)N1CCCCC1 [Compound 10l, N-(3-chloro-4-((3-fluorobenzyl)oxy)phenyl)-6-(4-(piperidin-1-ylsulfonyl)phenyl)quinazolin-4-amine]
IC50 (HepG2 cells): > 20 µM

Fc1cccc(COc2ccc(Nc3ncnc4ccc(-c5cccc(N6CCOCC6)c5)cc34)cc2Cl)c1 [Compound 23a, N-(3-chloro-4-((3-fluorobenzyl)oxy)phenyl)-6-(3-morpholinophenyl)quinazolin-4-amine]
survival on day 8 (all untreated mice had died) (T. brucei brucei CA427; 10 mg/kg twice per day i.p.): all alive
survival (T. brucei brucei CA427; 10 mg/kg twice per day oral): died in the same time frame as control mice
toxicity in multi-day regimen (T. brucei brucei CA427; mouse, 40 mg/kg dose once per day): drug-related toxicity was observed
effect on the cell cycle (T. brucei [2]): blocks duplication of the kinetoplast and arrests cytokinesis, without inhibiting division of the trypanosome nucleus
fraction of cells containing two nuclei and one kinetoplast (1K2N) (T. brucei [2]; DAPI microscopy): selectively increased
number of cells containing one nucleus (1K1N, 1Ke1N) (T. brucei [2]; DAPI microscopy): reduced
effect on receptor-mediated endocytosis of transferrin [3]: no effect
oral bioavailability [4]: orally bioavailable

O=S(=O)(c1cccc(-c2ccc3ncnc(Nc4ccc(OCc5cccc(F)c5)c(Cl)c4)c3c2)c1)N1CCCCC1 [Compound 10m, N-(3-chloro-4-((3-fluorobenzyl)oxy)phenyl)-6-(3-(piperidin-1-ylsulfonyl)phenyl)quinazolin-4-amine]
IC50 (HepG2 cells): > 20 µM

CS(=O)(=O)CCNCc1ccc(-c2ccc3ncnc(Nc4ccc(OCc5cccc(F)c5)c(Cl)c4)c3c2)o1 [Compound 1, lapatinib]
effect on endocytosis of transferrin in the trypanosome [5]: inhibited endocytosis of transferrin

O=S(=O)(c1cccc(-c2ccc3ncnc(Nc4ccc(OCc5cccc(F)c5)c(Cl)c4)c3c2)c1)N1CCOCC1 [Compound 10k, N-(3-chloro-4-((3-fluorobenzyl)oxy)phenyl)-6-(3-(morpholinosulfonyl)phenyl)quinazolin-4-amine]
IC50 (HepG2 cells): > 20 µM
